Experimental data taken from PMC4741889, “Ligand-based chemoinformatic discovery of a novel small molecule inhibitor targeting CDC25 dual specificity phosphatases and displaying in vitro efficacy against melanoma cells” (Oncotarget, 2015).
Like-named read-outs stand apart in the source and are kept apart here.

Assays:
[1] = biological target: T1, CDC25B (Homo sapiens, UniProt P30305); assay: Residual phosphatase activity of recombinant CDC25B, fluorimetric OMFP assay; format: biochemical; details: for remaining activity at 0.2 µM: 0.2 μM inhibitor; for remaining activity at 0.2 µM / remaining activity at 1 µM: 10 nM CDC25B, 25 μM OMFP, read-out: CDC25B residual activity (%) in the presence of [inhibitor]; for remaining activity at 1 µM: 1 μM inhibitor; for inhibition of the CDC25B phosphatase activity (in words): two inhibitor concentrations, 0.2 and 1 μM
T1 construct: Recombinant forms of the catalytic domains of CDC25A, -B and -C were obtained through the vectors pET28a-CDC25A-cd, pET28a-CDC25B-cd and pET28a-CDC25C-cd; made in house
T1 sequence (P30305 431-538 limits assumed): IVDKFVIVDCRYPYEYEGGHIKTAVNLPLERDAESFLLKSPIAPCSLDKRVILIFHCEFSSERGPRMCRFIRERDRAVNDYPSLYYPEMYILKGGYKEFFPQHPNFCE
Description: Among the twenty-five structures identified from the multiple ligand-based chemoinformatic approach, eight compounds (2, 10, 12–14, and 16–18) were excluded from the analysis, because endowed with a strong fluorescent signal, which interfered with the emission wavelength of the synthetic substrate 3-O-methylfluorescein phosphate (OMFP) used in the fluorimetric assay. The inhibition of the phosphatase activity of CDC25B by the remaining seventeen analogs was evaluated in the presence of two different concentrations of these compounds (Table 2). […] For this reason, only one of these latter compounds, i.e. 3, was included in the following analysis.
The enzymatic activity of the catalytic domains of CDC25A, -B and -C were determined through a fluorimetric method, which monitored the dephosphorylation of the synthetic substrate OMFP, essentially as previously described. In steady-state enzyme kinetic studies, the residual phosphatase activity of purified recombinant CDC25B was measured at 30°C in the presence of different concentrations of the various inhibitors, using a computer-assisted Cary Eclipse spectrofluorimeter (Varian) equipped with an electronic temperature controller. Excitation and emission wavelengths were set at 485 and 530 nm, respectively; both excitation and emission slits were set at 10 nm. The reaction mixture contained 10 nM CDC25B and different concentrations of the various inhibitors in 500 μL final volume of 20 mM Tris-HCl, pH 7.8, 1 mM DTT. DMSO was used as vehicle control. The reaction started by the addition of 25 μM OMFP, and the formation of the fluorescent product o-methylfluorescein was monitored continuously. The rate of OMFP hydrolysis was expressed as arbitrary units per min (a.u./min). The comparison of the rates determined in the absence and in the presence of the various inhibitors allowed the calculation of the residual phosphatase activity, expressed as a percentage.

[2] = biological target: T1, CDC25B; assay: Ki from OMFP hydrolysis kinetics (Lineweaver-Burk), CDC25B; format: biochemical; details: 10 nM CDC25B, 1–25 μM OMFP; mean ± S.E.
Description: (§1) To measure the inhibition constant (Ki) of the recombinant forms of CDC25A, -B and -C towards the various inhibitors, the affinity of the different forms of CDC25 towards OMFP was measured either in the absence or in the presence of fixed concentrations of the various inhibitors. The reaction mixture contained 20 nM CDC25A, or 10 nM CDC25B, or 40 nM CDC25C, and different concentrations of the various inhibitors in 500 μL final volume of 20 mM Tris-HCl, pH 7.8, 1 mM DTT. DMSO was used as vehicle control. The reaction started by the addition of 1–25 μM OMFP, and the rate of OMFP hydrolysis was measured as indicated before. The corresponding Lineweaver-Burk plots allowed the calculation of the KM for OMFP and of the Vmax of OMFP hydrolysis, expressed as a.u./minmax. […] The Ki values were obtained from the decrease of a.u./minmax in the presence of the inhibitor, according to the equation a.u./mimmax’ = a.u./mimmax/{1 + ([I]/Ki)}, where a.u./mimmax’ represents the Vmax measured in the presence of the concentration [I] of the inhibitor. The Ki values were obtained from at least three independent experiments and reported as mean ± S.E.

[3] = system: SAN cells; assay: MTT cell growth rate, SAN melanoma cells; format: cell-based, human; details: 100 μM, 48 h, MTT
Description: (§2) The human melanoma cell line A2058, kindly provided by CEINGE (Naples, Italy), and SAN cells were derived from lymph nodal metastases and grown in DMEM and RPMI 1640, respectively, supplemented with 10% FBS, 2 mM L-glutamine, 100 IU/mL penicillin G, and 100 μg/mL streptomycin in humidified incubator at 37°C under 5% CO2 atmosphere. All cells were split and seeded every three days and used during the exponential phase of growth. Cell treatments were always carried after 24 h from plating.
(§3) The MTT assay was used to detect cell proliferation essentially as previously described. Briefly, A2058 and SAN cells were plated in 96-well microtiter plates (100 μL/well) at 4000 and 6000 cells/well, respectively. After 24-h seeding, cells were treated with the selected compounds added at 25, 50 or 100 μM concentration, or with 0.5% (v/v) DMSO as a vehicle control. After 24-h, 48-h or 72-h treatment, and upon the addition of 10 μL of MTT solution in the dark, the plate was incubated for 3 h at 37°C under CO2 atmosphere. After medium aspiration and solubilization of formazan crystals, absorbance was measured at 570 nm, using an ELISA plate reader (Bio-Rad, Milano, Italy).

[4] = system: A2058 cells; assay: MTT cell growth rate, A2058 melanoma cells; format: cell-based, human; details: A2058, 100 μM, 48 h, MTT
Description: as §2, §3

[5] = biological target: T2, CDC25A (Homo sapiens, UniProt P30304); assay: Ki from OMFP hydrolysis kinetics (Lineweaver-Burk), CDC25A; format: biochemical
T2 construct: Recombinant forms of the catalytic domains of CDC25A, -B and -C were obtained through the vectors pET28a-CDC25A-cd, pET28a-CDC25B-cd and pET28a-CDC25C-cd; made in house
T2 sequence (P30304 376-482 limits assumed): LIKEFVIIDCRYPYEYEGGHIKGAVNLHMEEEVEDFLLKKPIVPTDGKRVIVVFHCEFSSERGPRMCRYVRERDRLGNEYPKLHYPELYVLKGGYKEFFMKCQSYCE
Description: as §1, with “The reaction started by the addition of 1–25 μM OMFP, and the rate of OMFP hydrolysis was measured as indicated before.” left out

[6] = biological target: T3, CDC25C (Homo sapiens, UniProt P30307); assay: Ki from OMFP hydrolysis kinetics (Lineweaver-Burk), CDC25C; format: biochemical
T3 construct: Recombinant forms of the catalytic domains of CDC25A, -B and -C were obtained through the vectors pET28a-CDC25A-cd, pET28a-CDC25B-cd and pET28a-CDC25C-cd; made in house
T3 sequence (P30307 321-428 limits assumed): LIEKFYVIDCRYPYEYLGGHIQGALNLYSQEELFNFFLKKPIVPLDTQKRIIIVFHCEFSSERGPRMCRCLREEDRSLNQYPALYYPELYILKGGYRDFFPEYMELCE
Description: as §1, with “The reaction started by the addition of 1–25 μM OMFP, and the rate of OMFP hydrolysis was measured as indicated before.” left out

[7] = 20 nM CDC25A, 1–25 μM OMFP, mean ± S.E., read-out: Ki CDC25A
[8] = 40 nM CDC25C, 1–25 μM OMFP, mean ± S.E., read-out: Ki CDC25C

remaining activity at 0.2 µM [1] | remaining activity at 1 µM [1] | Ki [2] | Ki [5, 7] | Ki [6, 8] | Structure (SMILES) | inhibition of the CDC25B phosphatase activity (in words) [1] | cell growth rate [3] | cell growth rate [4] | Ki [5] | Ki [6]
76% | 9% | – | – | – | Cc1c2ccc(=O)cc-2oc2cc(O)ccc12 [Compound 1] | measurable inhibition of the phosphatase activity, only when added at the highest concentration | – | – | – | –
85% | 62% | 2400 ± 390 nM | 280 ± 90 nM | 4400 ± 620 nM | O=C(O)c1c2ccc(=O)cc-2oc2cc(O)ccc12 [Compound 3] | measurable inhibition of the phosphatase activity, only when added at the highest concentration | failure | failure | – | –
90% | 28% | – | – | – | O=C(O)CCc1c2ccc(=O)cc-2oc2cc(O)ccc12 [Compound 4] | measurable inhibition of the phosphatase activity, only when added at the highest concentration | – | – | – | –
12% | 2% | 120 ± 50 nM | 380 ± 120 nM | 390 ± 150 nM | O=C(O)C=Cc1c2ccc(=O)cc-2oc2cc(O)ccc12 [Compound 5] | – | failure | failure | – | –
14% | 2% | 1100 ± 370 nM | 100 ± 30 nM | 1000 ± 410 nM | O=C(O)/C=C/c1c2ccc(=O)c(O)c-2oc2c(O)c(O)ccc12 [Compound 6, (E)-3-(4,5,6-trihydroxy-3-oxo-3H-xanthen-9-yl)acrylic acid] | – | significant reduction of cell growth rate | – | – | –
9% | 0% | 440 ± 200 nM | 800 ± 310 nM | 1500 ± 480 nM | O=c1cc2oc3cc(O)c(O)cc3c(-c3ccccc3)c-2cc1O [Compound 9] | – | failure | failure | – | –
79% | 18% | – | – | – | O=C(O)c1ccccc1-c1c2cc(I)c(=O)c(I)c-2oc2c(I)c(O)c(I)cc12 [Compound 15] | measurable inhibition of the phosphatase activity, only when added at the highest concentration | – | – | – | –
91% | 24% | – | – | – | O=c1ccc2c(-c3ccccc3S(=O)(=O)O)c3ccc(O)c(O)c3oc-2c1O [Compound 20] | measurable inhibition of the phosphatase activity, only when added at the highest concentration | – | – | – | –
80% | 0% | – | – | – | CN(C)c1ccc(-c2c3cc(O)c(=O)cc-3oc3cc(O)c(O)cc23)cc1 [Compound 22] | measurable inhibition of the phosphatase activity, only when added at the highest concentration | – | – | – | –

Structure (SMILES) | remaining activity at 0.2 µM [1] | remaining activity at 1 µM [1] | Ki [2] | Ki [5, 7] | Ki [6, 8] | inhibition of the CDC25B phosphatase activity (in words) [1] | cell growth rate [3] | cell growth rate [4] | Ki [5] | Ki [6]
O=C(O)c1ccccc1-c1c2cc([N+](=O)[O-])c(=O)c(Br)c-2oc2c(Br)c(O)c([N+](=O)[O-])cc12 [Compound 19] | 86% | 70% | – | – | – | measurable inhibition of the phosphatase activity, only when added at the highest concentration | – | – | – | –
O=C(O)C1[C@H]2C=C[C@H](C2)[C@H]1c1c2ccc(=O)c(O)c-2oc2c(O)c(O)ccc12 (stereo partly drawn) [Compound 24, (1R,3R,4S)-3-(4,5,6-trihydroxy-3-oxo-3H-xanthen-9-yl)bicyclo[2.2.1]hept-5-ene-2-carboxylic acid] | 22% | 3% | 300 ± 80 nM | – | – | – | significant reduction of cell growth rate | – | 10 ± 5 nM | 400 ± 110 nM
O=C(O)C1C(c2c3ccc(=O)c(O)c-3oc3c(O)c(O)ccc23)C2(Cl)C(Cl)=C(Cl)C1(Cl)C2(Cl)Cl (centres unmarked) [Compound 25] | 24% | 1% | 1100 ± 400 nM | 400 ± 150 nM | 960 ± 380 nM | – | failure | failure | – | –
